This is an account of results in PMC6014686, “Thienopyrimidinone Based Sirtuin-2 (SIRT2)-Selective Inhibitors Bind in the Ligand Induced Selectivity Pocket” (Journal of Medicinal Chemistry, 2017).

Bounds are passed on as bounds.

One test concerns SIRT5. On the set-up: method as in PMID 25395356. The following applies: cited from earlier work.
A further test addresses T1, SIRT1 (Homo sapiens, UniProt Q96EB6).
T1 sequence (Q96EB6 1-747): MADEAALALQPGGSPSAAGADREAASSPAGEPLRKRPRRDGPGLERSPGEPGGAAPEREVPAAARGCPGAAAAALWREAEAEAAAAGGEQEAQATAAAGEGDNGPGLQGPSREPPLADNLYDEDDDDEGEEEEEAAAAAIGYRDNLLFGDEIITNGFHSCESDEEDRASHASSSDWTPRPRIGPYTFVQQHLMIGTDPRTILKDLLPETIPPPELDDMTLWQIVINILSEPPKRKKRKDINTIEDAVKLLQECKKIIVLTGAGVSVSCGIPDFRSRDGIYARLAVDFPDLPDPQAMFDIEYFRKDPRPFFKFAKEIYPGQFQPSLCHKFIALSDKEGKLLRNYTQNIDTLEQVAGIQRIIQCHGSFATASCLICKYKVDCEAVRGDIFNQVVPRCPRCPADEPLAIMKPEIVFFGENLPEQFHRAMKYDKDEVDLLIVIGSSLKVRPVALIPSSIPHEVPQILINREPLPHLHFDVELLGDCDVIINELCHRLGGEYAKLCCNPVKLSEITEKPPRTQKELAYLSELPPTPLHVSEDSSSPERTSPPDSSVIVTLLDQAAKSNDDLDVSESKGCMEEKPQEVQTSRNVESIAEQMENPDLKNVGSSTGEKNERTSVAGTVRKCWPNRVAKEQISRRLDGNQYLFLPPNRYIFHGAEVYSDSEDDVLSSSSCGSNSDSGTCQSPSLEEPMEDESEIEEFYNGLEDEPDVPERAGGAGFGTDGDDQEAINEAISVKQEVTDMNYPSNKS
On the set-up: method as in PMID 25395356. The settings on record: reported earlier; cited from earlier work.

Test [1] concerns acetylated (lysine-40) α-tubulin in MCF-7 cells. Description: Tubulin acetylation assay, Western blot in MCF-7 cells with TSA. The following applies: 0-50 μM for 24 h with 50 nM TSA, N = 3. For orientation: A western blot detects proteins with antibodies after separation by electrophoresis.
The next test concerns the target T2, SIRT3 (Homo sapiens, UniProt Q9NTG7).
T2 sequence (Q9NTG7 1-399): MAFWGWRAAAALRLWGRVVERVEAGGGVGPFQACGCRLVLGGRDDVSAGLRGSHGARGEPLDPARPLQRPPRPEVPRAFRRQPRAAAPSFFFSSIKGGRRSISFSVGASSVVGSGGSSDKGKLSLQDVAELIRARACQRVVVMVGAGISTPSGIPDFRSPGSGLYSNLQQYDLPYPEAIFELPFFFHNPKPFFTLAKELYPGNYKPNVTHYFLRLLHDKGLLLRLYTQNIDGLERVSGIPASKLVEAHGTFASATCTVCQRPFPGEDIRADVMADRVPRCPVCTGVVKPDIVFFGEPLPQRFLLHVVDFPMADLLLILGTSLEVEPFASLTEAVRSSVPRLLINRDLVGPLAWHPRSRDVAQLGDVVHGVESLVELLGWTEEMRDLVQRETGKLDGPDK
On the set-up: method as in PMID 25395356. The following applies: reported earlier; cited from earlier work.

In test [2] the test system is Parkinsonian neuronal cell death model. On the set-up: method as in PMID 25395356. The following applies: cited from earlier work.

By IC50 is commonly meant the concentration that gives 50% inhibition. With `COc1ccc2ccccc2c1Cn1cnc2sc3c(c2c1=O)CCC(NCc1cccnc1)C3` (stereo not drawn) [19a], the IC50 in the test on SIRT5 (Figure 1) was greater than 100 µM. Further, the “selectivity for SIRT2 in comparison to SIRT5” value in the test on SIRT5 (previous study) is reported as “more than 100”. The SIRT2/SIRT1 selectivity on SIRT1 is greater than 100. In addition, the “effect on α-tubulin acetylation level” value in test [1] was “showed increased acetylated α-tubulin level at 20 μM and decreased level at 50 μM”. For the same compound, the SIRT2/SIRT3 selectivity on SIRT3 is greater than 100. In test [2], the neuroprotection result is given as “showed neuroprotection”.
